# Measurements reported in patent US4795751A, “5-substituted-6,8-difluoroquinolines useful as antibacterial agents” (Dainippon Pharmaceutical Co., Ltd., priority 1985, dated 1989).
# Columns and labels:
# [1] = test system: Staphylococcus aureus 50774; experiment: In vivo efficacy against systemic infections in mice; parameters: species or system Staphylococcus aureus; male mice (ddY-S); details: Staphylococcus aureus, 50774, 336 h, oral, intravenous infection 5×10^8 cells, twice, immediately and 6 h after infection, 14 days, calculated for free base, read-out: median effective dose (ED50)
# Protocol: (§1) Compounds were each dissolved in deionized water. Each of the solutions was orally administered to mice infected with each of the test organisms under the conditions shown hereinbelow, and the median effective dose (ED50) was calculated by probit analysis. The numerals in the table show ED50 (mg/kg) value, calculated for free base.
# (§2) Mice: Male mice (ddY-S) weighing about 20 g
# Staphylococcus aureus 50774
# Intravenous infection with 5×10^8 cells per mouse suspended in saline.
# (§3) Four times, immediately, 6, 24 and 30 hours after infection in case of Streptococcus pneumoniae 1 Neufeld. Twice, immediately and 6 hours after infection in case of other organisms.
# (§4) For 14 days in case of Staphylococcus aureus 50774 and Streptocuccus pneumoniae 1 Neufeld. For 7 days in case of other organisms.
# [2] = test system: Streptococcus pneumoniae 1 Neufeld; experiment: as above; parameters: species or system Streptococcus pneumoniae; male mice (ddY-S); details: 336 h, oral, intraperitoneal infection 3×10^3 cells, four times, immediately, 6, 24 and 30 h after infection, 14 days, calculated for free base, read-out: median effective dose (ED50)
# Protocol: as §1, §2
# Streptococcus pneumoniae 1 Neufeld
# Intraperitoneal infection with 3×10^3 cells per mouse suspended in brain heart infusion broth.
# as §3, §4
# M. pneumoniae Mac = experiment: Anti-Mycoplasma activity, twofold agar-dilution method; assay type: cell-based; details: Mycoplasmoides pneumoniae, 168 h, Chanock agar, 37° C., 7 days aerobically, calculated for free base, read-out: minimum inhibitory concentration (MIC)
# Protocol: (§5) The numbers in the table show minimum inhibitory concentrations (MIC) (μg/ml), calculated for free base. The minimum inhibitory concentration was determined by the twofold agar-dilution method using Chanock agar. Three μl of a culture of test organisms in Chanock broth was inoculated onto 10-ml drug-containing agar layers in petri dishes. Growth of Mycoplasma was observed after incubation at 37° C. under the conditions shown hereinbelow. The MIC was defined as the lowest drug concentration which prevented growth of Mycoplasma microscopically.
# M. orale CH-19299 = experiment: as above; assay type: cell-based; details: 48 h, Chanock agar, 37° C., 2 days anaerobically, calculated for free base, read-out: minimum inhibitory concentration (MIC)
# Protocol: as §5
# M. hominis PG-21 = experiment: as above; assay type: cell-based; details: Metamycoplasma hominis, PG21, 48 h, Chanock agar, 37° C., 2 days anaerobically, calculated for free base, read-out: minimum inhibitory concentration (MIC)
# Protocol: as §5
# [3] = test system: Streptococcus pyogenes A65; experiment: In vivo efficacy against systemic infections in mice; parameters: species or system Streptococcus pyogenes; male mice (ddY-S); details: A65, 168 h, oral, intraperitoneal infection 3×10^7 cells, twice, immediately and 6 h after infection, 7 days, calculated for free base, read-out: median effective dose (ED50)
# Protocol: as §1, §2
# Streptococcus pyogenes A65
# Intraperitoneal infection with 3×10^7 cells per mouse suspended in brain heart infusion broth.
# as §3, §4
# [4] = test system: Campylobacter jejuni 19805; experiment: Antibacterial activity against Campylobacter jejuni, twofold agar-dilution method; assay type: cell-based; details: strain 19805, blood-containing Mueller-Hinton agar, 48 h, 37° C. microaerobically, calculated for free base, read-out: minimum inhibitory concentration (MIC)
# Protocol: (§6) The numbers in the table show minimum inhibitory concentrations (MIC) (μg/ml), calculated for free base. The minimum inhibitory concentration was determined by the twofold agar-dilution method using blood-containing Mueller-Hinton agar. One loopful of a culture of test organisms in Mueller-Hinton broth was inoculated onto 10-ml drug-containing agar layer in petri dishes. Bacterial growth was observed after 48-hour incubation at 37° C. microaerobically. The MIC was defined as the lowest drug concentration which prevented visible bacterial growth.
# [5] = test system: Campylobacter jejuni 10812; experiment: as above; assay type: cell-based; details: strain 10812, blood-containing Mueller-Hinton agar, 48 h, 37° C. microaerobically, calculated for free base, read-out: minimum inhibitory concentration (MIC)
# Protocol: as §6
# [6] = test system: Campylobacter jejuni A-24-2; experiment: as above; assay type: cell-based; details: A242, strain A-24-2, blood-containing Mueller-Hinton agar, 48 h, 37° C. microaerobically, calculated for free base, read-out: minimum inhibitory concentration (MIC)
# Protocol: as §6
# [7] = test system: Campylobacter jejuni A-11-3; experiment: as above; assay type: cell-based; details: A113, strain A-11-3, blood-containing Mueller-Hinton agar, 48 h, 37° C. microaerobically, calculated for free base, read-out: minimum inhibitory concentration (MIC)
# Protocol: as §6
# [8] = test system: Campylobacter jejuni 19806; experiment: as above; assay type: cell-based; details: strain 19806, blood-containing Mueller-Hinton agar, 48 h, 37° C. microaerobically, calculated for free base, read-out: minimum inhibitory concentration (MIC)
# Protocol: as §6
# [9] = test system: Campylobacter jejuni 19807; experiment: as above; assay type: cell-based; details: strain 19807, blood-containing Mueller-Hinton agar, 48 h, 37° C. microaerobically, calculated for free base, read-out: minimum inhibitory concentration (MIC)
# Protocol: as §6
# Campylobacter jejuni 170 = experiment: as above; assay type: cell-based; details: strain 170, blood-containing Mueller-Hinton agar, 48 h, 37° C. microaerobically, calculated for free base, read-out: minimum inhibitory concentration (MIC)
# Protocol: as §6
# [10] = test system: Campylobacter jejuni A-19-3; experiment: as above; assay type: cell-based; details: A193, strain A-19-3, blood-containing Mueller-Hinton agar, 48 h, 37° C. microaerobically, calculated for free base, read-out: minimum inhibitory concentration (MIC)
# Protocol: as §6
# Campylobacter jejuni 77 = experiment: as above; assay type: cell-based; details: strain 77, blood-containing Mueller-Hinton agar, 48 h, 37° C. microaerobically, calculated for free base, read-out: minimum inhibitory concentration (MIC)
# Protocol: as §6
# [11] = test system: Campylobacter jejuni 19804; experiment: as above; assay type: cell-based; details: strain 19804, blood-containing Mueller-Hinton agar, 48 h, 37° C. microaerobically, calculated for free base, read-out: minimum inhibitory concentration (MIC)
# Protocol: as §6
# Campylobacter jejuni 20 = experiment: as above; assay type: cell-based; details: strain 20, blood-containing Mueller-Hinton agar, 48 h, 37° C. microaerobically, calculated for free base, read-out: minimum inhibitory concentration (MIC)
# Protocol: as §6
# Campylobacter jejuni 10 = experiment: as above; assay type: cell-based; details: strain 10, blood-containing Mueller-Hinton agar, 48 h, 37° C. microaerobically, calculated for free base, read-out: minimum inhibitory concentration (MIC)
# Protocol: as §6
# Campylobacter jejuni 12 = experiment: as above; assay type: cell-based; details: strain 12, blood-containing Mueller-Hinton agar, 48 h, 37° C. microaerobically, calculated for free base, read-out: minimum inhibitory concentration (MIC)
# Protocol: as §6
structure (smiles),measurement,setting,value
"CC1CN(c2c(F)c(N)c3c(=O)c(C(=O)O)cn(C4CC4)c3c2F)CCN1 (stereo not shown) [Compound 1, 5-Amino-1-cyclopropyl-6,8-difluoro-7-(3-methyl-1-piperazinyl)-1,4-dihydro-4-oxoquinoline-3-carboxylic acid]",ED50,[1],1.35 mg/kg
same,ED50,[2],10.9 mg/kg
same,MIC,M. pneumoniae Mac,0.025 µg/mL
same,MIC,M. orale CH-19299,0.2 µg/mL
same,MIC,M. hominis PG-21,0.05 µg/mL
same,ED50,[3],5.26 mg/kg
same,MIC,[4],0.0125 µg/mL
same,MIC,[5],0.025 µg/mL
same,MIC,[6],0.05 µg/mL
same,MIC,[7],0.05 µg/mL
same,MIC,[8],0.0125 µg/mL
same,MIC,[9],0.0125 µg/mL
same,MIC,Campylobacter jejuni 170,0.0125 µg/mL
same,MIC,[10],0.05 µg/mL
same,MIC,Campylobacter jejuni 77,0.0125 µg/mL
same,MIC,[11],0.0125 µg/mL
same,MIC,Campylobacter jejuni 20,0.0063 µg/mL
same,MIC,Campylobacter jejuni 10,0.0125 µg/mL
same,MIC,Campylobacter jejuni 12,0.0125 µg/mL
